Source: patent publication EP1401829B1, “NOVEL HETEROCYCLIC ANTIBACTERIAL COMPOUNDS” (Microbiotix, Inc., priority 2001, dated 2002)
In brackets after ≈: the same amount, converted by molar mass.

What was measured:
S.aureus (Smith) = assay: Minimal Inhibitory Concentration (MIC) determination, 96 well plates; assay type: cell-based, Staphylococcus aureus; conditions: Staphylococcus aureus; HBI medium, 16 to 18 hours at 37°C; read-out: MIC (µg/ml) S.aureus (Smith)
Experimental: (§1) The following methods were used to characterize representative compounds. Minimal Inhibitory Concentration (MIC) determinations. MIC values were determined in 96 well plates, with bacterial growth monitored at OD 600 nm in 200µl following an initial bacterial seeding at approximately 1x10^5 colony forming units (CFU)/ml. Each drug is evaluated at five concentrations, with five data points at each dilution. MIC values (µg/ml) were determined against actively growing cultures in Heart-Brain Infusion (HBI) medium. Cell growth in cultures supplemented with a test compound was calculated as a percent of control at OD 600 nm after 16 to 18 hours at 37°C. […] Polymerase IIIC (Pol IIIC) assay. DNA polymerase activity (or inhibition thereof) was measured in a 96-well plate format. B. subtilis Pol IIIC was isolated as described by Hammond and Brown (Protein Expr. Purif., 3: 65-70 (1992)). Each 25 µl assay contained 30 mM Tris, pH 7.5, 10 mM magnesium acetate, 4 mM dithiothreitol, 20% glycerol, with 25 µM dATP, dCTP, dGTP and 10 µM dTTP (^3H-labelled at 1.44 Ci/mmole) and 0.4 mg/ml activated calf thymus DNA as substrates, as described previously (see Barnes et al, op. cit). Assays were initiated by the addition of 0.025 to 0.06 units of enzyme 1 unit is the amount required to incorporate 250 pmoles of [^3H] dTMP in a standard assay), incubated for 10 minutes at 30°C and terminated by the addition of 200 µl of cold 10% trichloroacetic acid (TCA),10 mM sodium pyrophosphate. Precipitated labeled DNA was collected on glass fiber filter plates, washed, dried, and counted in a liquid scintillation counter. Determination of Ki values. DNA polymerase activity was measured in a 96-well plate format in the absence of dGTP or dATP, depending on the structure of the test compound. Each 25 µl assay contained 30 mM Tris, pH 7.5, 10 mM magnesium acetate, 4 mM dithiothreitol, 20% glycerol, with 25 µM dATP, dCTP, and 10 µM dTTP (^3H-labelled at 1.44 Ci/mmole) and 0.4 mg/ml activated calf thymus DNA as substrates, as described previously. […] Assays were initiated by the addition of 0.025 to 0.06 units of enzyme (1 unit is the amount required to incorporate 250 pmoles of [^3H] dTMP in a standard assay), incubated for 10 minutes at 30 °C and terminated by the addition of 200 µl of cold 10% trichloroacetic acid, 10 mM sodium pyrophosphate. Precipitated labeled DNA was collected on glass fiber filter plates, washed, dried, and counted in a liquid scintillation counter. Ki is the concentration of test compound that reduces the control polymerase IIIC activity by 50 percent.
(§2) MIC values were determined for the Gram positive bacteria Bacillus subtilis, Staphylococcus aureus (two strains), Enterococcus fecalis, Enterococcus fecium, and for the Gram negative bacterium Escherichia coli.

E. fecalis = assay: as above; assay type: cell-based, Enterococcus fecalis; conditions: Enterococcus; HBI medium, 16 to 18 hours at 37°C; read-out: MIC (µg/ml) E. fecalis
Experimental: as §1, §2

B. subtilis Pol IIIC = biological target: T1, B. subtilis Pol IIIC (Bacillus subtilis, UniProt P13267); assay: Polymerase IIIC (Pol IIIC) assay, determination of Ki values; assay type: biochemical; conditions: Ki (µM) Pol IIIC, assay in absence of dGTP or dATP; Ki is the concentration that reduces control polymerase IIIC activity by 50 percent
T1 construct: made in house
T1 sequence (P13267 whole entry): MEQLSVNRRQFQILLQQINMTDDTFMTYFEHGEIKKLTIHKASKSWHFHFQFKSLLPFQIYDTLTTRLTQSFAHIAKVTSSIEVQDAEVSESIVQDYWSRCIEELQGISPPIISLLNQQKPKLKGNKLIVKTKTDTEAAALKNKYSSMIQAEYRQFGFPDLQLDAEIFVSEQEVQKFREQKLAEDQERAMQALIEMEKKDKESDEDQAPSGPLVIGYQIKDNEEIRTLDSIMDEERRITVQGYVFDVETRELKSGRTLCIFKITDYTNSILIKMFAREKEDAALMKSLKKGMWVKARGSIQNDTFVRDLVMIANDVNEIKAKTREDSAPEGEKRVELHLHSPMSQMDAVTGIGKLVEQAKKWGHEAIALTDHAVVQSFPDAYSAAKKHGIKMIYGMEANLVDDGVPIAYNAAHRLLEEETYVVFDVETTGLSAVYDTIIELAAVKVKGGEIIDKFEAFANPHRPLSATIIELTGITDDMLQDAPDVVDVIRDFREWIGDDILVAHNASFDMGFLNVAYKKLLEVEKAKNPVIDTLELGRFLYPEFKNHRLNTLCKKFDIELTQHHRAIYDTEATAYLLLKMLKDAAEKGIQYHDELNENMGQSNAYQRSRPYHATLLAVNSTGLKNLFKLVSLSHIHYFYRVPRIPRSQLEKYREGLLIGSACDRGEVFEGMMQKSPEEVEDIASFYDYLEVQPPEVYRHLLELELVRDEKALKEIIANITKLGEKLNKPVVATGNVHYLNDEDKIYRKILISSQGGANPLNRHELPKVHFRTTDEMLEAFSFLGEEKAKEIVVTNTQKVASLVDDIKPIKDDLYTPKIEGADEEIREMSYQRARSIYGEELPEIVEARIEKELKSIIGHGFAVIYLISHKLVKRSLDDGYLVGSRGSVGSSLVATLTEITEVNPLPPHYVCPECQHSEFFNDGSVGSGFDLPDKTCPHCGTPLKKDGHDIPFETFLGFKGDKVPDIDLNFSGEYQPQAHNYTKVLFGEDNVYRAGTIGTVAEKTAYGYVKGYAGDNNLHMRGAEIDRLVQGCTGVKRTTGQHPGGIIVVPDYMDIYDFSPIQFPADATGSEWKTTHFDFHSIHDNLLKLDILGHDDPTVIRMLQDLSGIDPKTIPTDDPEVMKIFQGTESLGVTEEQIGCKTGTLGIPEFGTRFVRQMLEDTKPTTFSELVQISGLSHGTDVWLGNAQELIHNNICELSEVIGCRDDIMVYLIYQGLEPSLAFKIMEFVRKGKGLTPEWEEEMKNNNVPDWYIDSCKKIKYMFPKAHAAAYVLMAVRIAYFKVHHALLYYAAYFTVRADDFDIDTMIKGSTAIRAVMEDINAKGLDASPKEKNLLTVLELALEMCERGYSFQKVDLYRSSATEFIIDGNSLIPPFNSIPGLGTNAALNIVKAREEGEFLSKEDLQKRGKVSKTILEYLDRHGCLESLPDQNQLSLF
Experimental: as §1

E. fecium = assay: Minimal Inhibitory Concentration (MIC) determination, 96 well plates; assay type: cell-based, Enterococcus fecium; conditions: Enterococcus; HBI medium, 16 to 18 hours at 37°C; read-out: MIC (µg/ml) E. fecium
Experimental: as §1, §2

B. subtilis = assay: as above; assay type: cell-based, Bacillus subtilis; conditions: Bacillus subtilis; HBI medium, 16 to 18 hours at 37°C; read-out: MIC (µg/ml) B. subtilis
Experimental: as §1, §2

E. coli = assay: as above; assay type: cell-based, Escherichia coli; conditions: Escherichia coli; HBI medium, 16 to 18 hours at 37°C; read-out: MIC (µg/ml) E. coli
Experimental: (§3) The following methods were used to characterize representative compounds. Minimal Inhibitory Concentration (MIC) determinations. MIC values were determined in 96 well plates, with bacterial growth monitored at OD 600 nm in 200µl following an initial bacterial seeding at approximately 1x10^5 colony forming units (CFU)/ml. Each drug is evaluated at five concentrations, with five data points at each dilution. MIC values (µg/ml) were determined against actively growing cultures in Heart-Brain Infusion (HBI) medium. Cell growth in cultures supplemented with a test compound was calculated as a percent of control at OD 600 nm after 16 to 18 hours at 37°C. This plate format conserves test compound and provides precise, quantitative data with low standard deviation determinations. Polymerase IIIC (Pol IIIC) assay. DNA polymerase activity (or inhibition thereof) was measured in a 96-well plate format. B. subtilis Pol IIIC was isolated as described by Hammond and Brown (Protein Expr. Purif., 3: 65-70 (1992)). Each 25 µl assay contained 30 mM Tris, pH 7.5, 10 mM magnesium acetate, 4 mM dithiothreitol, 20% glycerol, with 25 µM dATP, dCTP, dGTP and 10 µM dTTP (^3H-labelled at 1.44 Ci/mmole) and 0.4 mg/ml activated calf thymus DNA as substrates, as described previously (see Barnes et al, op. cit). Assays were initiated by the addition of 0.025 to 0.06 units of enzyme 1 unit is the amount required to incorporate 250 pmoles of [^3H] dTMP in a standard assay), incubated for 10 minutes at 30°C and terminated by the addition of 200 µl of cold 10% trichloroacetic acid (TCA),10 mM sodium pyrophosphate. Precipitated labeled DNA was collected on glass fiber filter plates, washed, dried, and counted in a liquid scintillation counter. Determination of Ki values. DNA polymerase activity was measured in a 96-well plate format in the absence of dGTP or dATP, depending on the structure of the test compound. Each 25 µl assay contained 30 mM Tris, pH 7.5, 10 mM magnesium acetate, 4 mM dithiothreitol, 20% glycerol, with 25 µM dATP, dCTP, and 10 µM dTTP (^3H-labelled at 1.44 Ci/mmole) and 0.4 mg/ml activated calf thymus DNA as substrates, as described previously. To each well were added 2 µl of compound solution to give final concentrations ranging from 20 - 0.027 µg/ml in the assay. Assays were initiated by the addition of 0.025 to 0.06 units of enzyme (1 unit is the amount required to incorporate 250 pmoles of [^3H] dTMP in a standard assay), incubated for 10 minutes at 30 °C and terminated by the addition of 200 µl of cold 10% trichloroacetic acid, 10 mM sodium pyrophosphate. Precipitated labeled DNA was collected on glass fiber filter plates, washed, dried, and counted in a liquid scintillation counter. Ki is the concentration of test compound that reduces the control polymerase IIIC activity by 50 percent.
as §2

S. aureus = assay: as above; assay type: cell-based, Staphylococcus aureus; conditions: Staphylococcus aureus; HBI medium, 16 to 18 hours at 37°C; read-out: MIC (µg/ml) S. aureus
Experimental: as §3, §2

Structure (SMILES)	MIC (S.aureus (Smith))	MIC (E. fecalis)	Ki (B. subtilis Pol IIIC)	MIC (E. fecium)	MIC (B. subtilis)	MIC (E. coli)	MIC (S. aureus)
CCc1cc(Nc2cc(=O)n(CCCCCN3CCOC4CN(c5cc6c(cc5F)c(=O)c(C(=O)O)cn6C5CC5)CC43)c(=O)[nH]2)ccc1C (centres unmarked) [Compound 84, 3-{5-[1-(1-cyclopropyl-3-carboxy-4-oxo-6-fluoro-7-quinolyl)-3-(5-oxa-1,3-diazabicyclononyl)]pentyl}-6-(3-ethyl-4-methylanilino)uracil]	0.625 µg/mL (≈ 0.91 µM)	2.5 µg/mL (≈ 3.64 µM)	0.033 µM	25 µg/mL (≈ 36.4 µM)	0.313 µg/mL (≈ 0.456 µM)	> 80 µg/mL	1.25 µg/mL (≈ 1.82 µM)
CCc1cc(Nc2cc(=O)n(CCCCCN3CCOC4CN(c5c(F)cc6c(=O)c(C(=O)O)cn(CC)c6c5F)CC43)c(=O)[nH]2)ccc1C (centres unmarked) [Compound 85, 3-{5-[1-(1-ethyl-3-carboxy4-oxo-6,8-difluoro-7-quinolyl)-3-(5-oxa-1,3-diazabicyclononyl)]pentyl)-6-(3-ethyl-4-methylanilino)uracil]	6.1 µg/mL (≈ 8.81 µM)	7.5 µg/mL (≈ 10.8 µM)	0.059 µM	12.5 µg/mL (≈ 18 µM)	0.313 µg/mL (≈ 0.452 µM)	> 80 µg/mL	5 µg/mL (≈ 7.22 µM)
CCc1cc(Nc2cc(=O)n(CCCCCN3CC4CN(c5cc6c(cc5F)c(=O)c(C(=O)O)cn6C5CC5)CC4C3)c(=O)[nH]2)ccc1C (centres unmarked) [Compound 86, 3-{5-[1-(1-cyclopropyl-3-carboxy-4-oxo-6-fluoro-7-quinolyl)-4-(1,4-diazabicyclooctyl)]pentyl}-6-(3-ethyl-4-methylanilino)uracil]	2.5 µg/mL (≈ 3.73 µM)	10 µg/mL (≈ 14.9 µM)	0.054 µM	40 µg/mL (≈ 59.6 µM)	2.5 µg/mL (≈ 3.73 µM)	> 80 µg/mL	5 µg/mL (≈ 7.45 µM)
CCc1cc(Nc2cc(=O)n(CCCCN3CCOC4CN(c5cc6c(cc5F)c(=O)c(C(=O)O)cn6C5CC5)CC43)c(=O)[nH]2)ccc1C (centres unmarked) [Compound 87, 3-{4-[1-(1-cyclopropyl-3-carboxy-4-oxo-6-fluoro-7-quinolyl)-3-(5-oxa-1,3-diazabicyclononyl)]butyl}-6-(3-ethyl-4-methylanilino)uracil]	0.625 µg/mL (≈ 0.929 µM)	2.5 µg/mL (≈ 3.72 µM)	0.088 µM	7.5 µg/mL (≈ 11.1 µM)	0.313 µg/mL (≈ 0.465 µM)	> 40 µg/mL	1.87 µg/mL (≈ 2.78 µM)
CCc1cc(Nc2cc(=O)n(CCCCN3CCN(c4cc5c(cc4F)c(=O)c(C(=O)O)cn5-c4ccc(F)cc4F)CC3C)c(=O)[nH]2)ccc1C (centres unmarked) [Compound 89, 3-{4-[1-(1-{2,4-difluorophenyl}-3-carboxy-4-oxo-6-fluoro-7-quinolyl)-3-methyl-4-piperazinyl]butyl}-6-(3-ethyl-4-methylanilino)uracil]	0.156 µg/mL (≈ 0.218 µM)	0.625 µg/mL (≈ 0.872 µM)	0.018 µM	0.625 µg/mL (≈ 0.872 µM)	0.156 µg/mL (≈ 0.218 µM)	> 80 µg/mL	0.313 µg/mL (≈ 0.437 µM)
